Results from PubChem BioAssay (NCI).
“And” between values parts separate entries of the source, which are not always exact repeats. Identical values can stand only once.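 All cell lines were grown in 96-well plates and treated with compound for 48 hours. Abbreviation: GI50, concentration required for 50% inhibition of growth. TGI marks complete inhibition of growth.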

Legend:
Assay in all cases: DTP human tumour cell line panel, 48 h
[1] = test system: SNB-19 CNS
[2] = test system: U251 CNS
[3] = test system: SF-295 CNS
[4] = test system: NCI-H23 lung
[5] = test system: MCF7 breast
[6] = test system: M14 melanoma
[7] = test system: HOP-62 NSCLC
[8] = test system: LOX IMVI melanoma
[9] = test system: CAKI-1 renal
[10] = test system: T-47D breast

Structure (SMILES)	TGI [1]	TGI [2]	TGI [3]	TGI [4]	TGI [5]	TGI [6]	TGI [7]	TGI [8]	TGI [9]	TGI [10]	GI50 [10]	GI50 [4]	GI50 [5]	GI50 [6]	GI50 [7]	GI50 [9]
Cn1c(=O)sc2cc(C(=S)N3CCCCC3)ccc21	> 100 µM	> 100 µM	> 100 µM	> 100 µM	> 100 µM	> 100 µM	> 100 µM	> 100 µM	> 100 µM	–	–	–	–	–	–	–
CCCCN(C)/N=N/c1nc[nH]c1C(N)=O	> 100 µM	> 100 µM	> 100 µM	> 100 µM	> 100 µM	–	–	> 100 µM	> 100 µM	–	–	–	–	–	–	–
N/C(=N\N=C\c1ncccc1O)NO	98.9 µM	> 100 µM	> 77.8 µM	> 100 µM	> 100 µM	–	> 93 µM	> 100 µM	96.8 µM	–	–	–	–	–	–	–
CC1(C)Oc2ccc3c(=O)cc(-c4ccccc4)oc3c2C1C(=O)O (stereo not drawn)	–	> 100 µM	> 100 µM	> 100 µM	> 100 µM	> 100 µM	> 100 µM	–	> 100 µM	> 100 µM	–	–	–	–	–	–
COc1ccc(C(=O)/C=C/c2cc(-c3cc(OC)c(OC)c(OC)c3)n[nH]2)cc1	–	–	–	12.2 µM	2.96 µM	4.93 µM	3.77 µM	–	–	13 µM	2.31 µM	3.04 µM	1.15 µM	2.2 µM	1.76 µM	–
O=[N+]([O-])/C(C(Cl)=C(Cl)Cl)=C(/Nc1cccc2cccnc12)n1nnc2ccccc21	33.1 µM	–	42.2 µM	34.7 µM	46.3 µM	25.5 µM	37.5 µM	–	26.3 µM	41 µM	–	–	–	–	–	–
COc1ccc(Oc2ccccc2N)cc1	–	38.6 µM	> 100 µM	> 100 µM	–	> 100 µM	> 100 µM	> 100 µM	–	–	–	–	–	–	–	–
O=C(N=Nc1ccccc1Cl)NNc1ccccc1Cl	> 100 µM	> 100 µM	–	> 100 µM	–	> 100 µM	> 100 µM	44.8 µM	> 100 µM	> 100 µM	–	–	–	–	–	–
CCC(=O)OC1CCn2c1nc1c2C(=O)C(C)=C(NC(C)=O)C1=N (stereo not drawn)	16.8 µM	17.2 µM	4.12 µM	3.23 µM	–	–	3.47 µM	3 µM	1.94 µM	–	–	–	–	–	–	–
Cc1c2ccncc2c(C)c2c1[nH]c1ccc(OCCN(C)C)cc12	0.958 µM	0.946 µM	0.505 µM	1.22 µM	0.785 µM	–	1.95 µM	0.396 µM	1.89 µM	–	–	–	–	–	–	–
Cc1c2cccc-2ccc2c3ccccc3n(C(=O)c3ccc(Cl)cc3)c12	> 100 µM	> 100 µM	> 100 µM	> 100 µM	> 100 µM	> 100 µM	> 100 µM	> 100 µM	> 100 µM	–	–	–	–	–	–	–
COc1cc(N(CCC#N)CCC#N)ccc1/C=N\NC(=O)c1ccc(C)cc1	> 100 µM	30.8 µM	> 100 µM	> 100 µM	–	> 100 µM	> 100 µM	> 100 µM	> 100 µM	> 100 µM	–	–	–	–	–	–
[N-]=[N+]=NCC(O)Cn1cnc2c(NC(=O)c3ccccc3)ncnc21 (stereo not drawn)	> 100 µM	> 100 µM	> 100 µM	> 100 µM	–	> 100 µM	> 100 µM	> 100 µM	> 100 µM	–	–	–	–	–	–	–
CC1(C)C=C(/C=N/Nc2ccccc2)C(C#N)=C(O)C1(C#N)C#N	> 100 µM	–	> 100 µM	> 100 µM	> 100 µM	> 100 µM	> 100 µM	> 100 µM	> 100 µM	–	–	–	–	–	–	–
CCOc1cc2c(cc1O)C(O)C[C@@H]1[C@@H]2CC[C@]2(C)[C@@H](O)CC[C@@H]12 (stereo partly drawn)	> 61.8 µM	–	–	> 24.7 µM	> 100 µM	> 100 µM	> 100 µM	> 100 µM	> 100 µM	–	–	–	–	–	–	–
O=C1NC(Cc2ccc(O)cc2)C(=O)NC1Cc1ccc(O)cc1 (stereo not drawn)	> 100 µM	> 100 µM	> 100 µM	> 100 µM	> 100 µM	> 100 µM	> 100 µM	> 100 µM	> 100 µM	–	–	–	–	–	–	–
CC1(C)O[C@@H](C[C@]2(C#N)C[C@H](CCl)OC(C)(C)O2)C[C@@H](C#N)O1	> 100 µM	> 100 µM	> 100 µM	> 100 µM	–	> 100 µM	> 100 µM	> 100 µM	> 100 µM	–	–	–	–	–	–	–
O=C1C2C=CC(n3[nH]c(=O)n(Cc4ccccc4)c3=O)CC2C(=O)N1c1ccc(Br)cc1 (stereo not drawn)	> 100 µM	> 100 µM	> 100 µM	> 100 µM	–	> 100 µM	> 100 µM	> 100 µM	> 100 µM	–	–	–	–	–	–	–
CCOC(=O)C1=C(O)c2ccc(C)cc2C(=O)C1=O	> 100 µM	> 100 µM	> 100 µM	98.8 µM	–	> 100 µM	> 100 µM	> 100 µM	> 100 µM	–	–	–	–	–	–	–
C=C1C(C)C2C(Cc3ccccc3)NC(=O)C23OC(=O)/C=C\CC(=O)CCC(C)C/C=C/C3C1O (stereo not drawn)	12.9 µM	10.7 µM	13.9 µM	12.5 µM	5.1 µM	–	7.33 µM	3.64 µM	2.24 µM	–	–	–	0.695 µM and 1.39 µM	–	–	0.474 µM
